Measurements published in paper PMC2858983 (Clinical cancer research : an official journal of the …, 2010).
Where a name gives a salt, the structure may show the parent alone.

Target: inducible nitric oxide synthase (iNOS) (Homo sapiens, UniProt P35228)
Assay: NO release
Format: cell-based

Chain of inducible nitric oxide synthase (iNOS) (P35228 whole entry): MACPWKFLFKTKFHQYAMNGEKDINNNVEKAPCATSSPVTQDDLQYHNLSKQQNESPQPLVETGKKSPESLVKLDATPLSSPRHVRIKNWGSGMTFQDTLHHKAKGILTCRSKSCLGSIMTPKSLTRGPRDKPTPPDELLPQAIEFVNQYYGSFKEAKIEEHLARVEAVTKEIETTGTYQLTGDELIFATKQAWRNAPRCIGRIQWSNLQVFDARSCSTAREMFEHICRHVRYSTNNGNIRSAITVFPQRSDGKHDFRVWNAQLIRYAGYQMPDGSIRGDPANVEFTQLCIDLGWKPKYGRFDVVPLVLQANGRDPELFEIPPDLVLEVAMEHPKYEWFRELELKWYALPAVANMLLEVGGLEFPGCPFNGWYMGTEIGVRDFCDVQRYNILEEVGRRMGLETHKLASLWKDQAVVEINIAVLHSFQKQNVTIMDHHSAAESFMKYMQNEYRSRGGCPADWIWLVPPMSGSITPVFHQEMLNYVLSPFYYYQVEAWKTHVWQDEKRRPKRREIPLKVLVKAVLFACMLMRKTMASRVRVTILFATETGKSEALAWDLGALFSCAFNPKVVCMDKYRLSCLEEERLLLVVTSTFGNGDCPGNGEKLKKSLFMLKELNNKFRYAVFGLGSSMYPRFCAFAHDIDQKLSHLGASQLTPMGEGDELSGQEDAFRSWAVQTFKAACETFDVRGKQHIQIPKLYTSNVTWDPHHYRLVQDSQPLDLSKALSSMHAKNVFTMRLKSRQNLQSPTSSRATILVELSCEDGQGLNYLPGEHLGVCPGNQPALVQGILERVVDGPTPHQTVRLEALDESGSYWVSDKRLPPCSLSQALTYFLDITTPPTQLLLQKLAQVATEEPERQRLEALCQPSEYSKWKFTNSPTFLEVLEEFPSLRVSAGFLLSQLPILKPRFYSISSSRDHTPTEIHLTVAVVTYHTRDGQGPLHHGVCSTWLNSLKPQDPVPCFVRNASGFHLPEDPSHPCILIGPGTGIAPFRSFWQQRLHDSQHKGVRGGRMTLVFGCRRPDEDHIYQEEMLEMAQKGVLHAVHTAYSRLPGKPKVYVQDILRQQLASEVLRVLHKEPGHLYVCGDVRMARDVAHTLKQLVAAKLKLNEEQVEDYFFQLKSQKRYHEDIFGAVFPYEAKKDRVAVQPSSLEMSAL

With `CC(=N)NCCCC[C@H](N)C(=O)O` [L-nil, N6-(1-Iminoethyl)-L-lysine-dihydrochloride] the IC50 was 595 µM.
